Measurements as given in patent US20090209517A1, “Use of 5H-dibenz/b,f/azepine-5-carboxamide derivatives in the treatment of neuropathic pain and neurological disorders” (priority 2006, published 2009).
Where two headings read alike, the source gives them in different places.

Experiments:
Mice (NMRI) [1] = assay: Formalin paw test (licking time); format: in vivo; conditions: for Formalin paw test licking time (s) at 100 mg/kg: 100 mg/kg p.o., 60 min before test, vehicle-treated mice 81.0±13.8 s; for Effect on licking in the formalin test at 300 mg/kg: 300 mg/kg p.o.; for ED50: Mus musculus, po, doses 10-300 mg/kg, FIG. 1, read-out: ED50 for reduction of licking time in the formalin paw test
Description: The method, which detects analgesic/anti-inflammatory activity, follows that described by Wheeler-Aceto et al (see WHEELER-ACETO, H. & A., C. (1991), “Standardization of the rat paw formalin test for the evaluation of analgesics”, Psychopharmacology, 104, 35-44). Mice (NMRI) were given an intraplantar injection of 5% formalin (25 μl) into the posterior left paw. […] The time spent licking was counted for 15 minutes, beginning 15 minutes after injection of formalin. 10 mice were studied per group. The test was performed blind. ESL and CBZ were tested at the doses of 10, 30, 100 and 300 mg/kg p.o., and OXC and R-Lic were tested at the doses of 100 and 300 mg/kg p.o., administered 60 minutes before the test (i.e. 45 minutes before formalin), and compared with a vehicle control group in each experiment.

[2] = Rotarod test (motor impairment); format: in vivo, mice; conditions: male, mouse, in vivo, ip; intraperitoneally, 15 min after administration, 15 r.p.m.
Description: (§1) A normal mouse can maintain its equilibrium for long periods in the rotating rod. Mice were examined for motor toxicity in the rotating rod apparatus (Accelerator Rota-Rod [Jones & Roberts] 7650; Ugo Basile). The motor performance of naive mice (male Charles River, weighing 30 to 35 g) was evaluated 15 min after the administration of the compounds to be tested. Animals were placed on the rotating rod at a speed of 15 r.p.m. In a drug-treated mouse the neurological deficit is indicated by the inability of the animal to maintain equilibrium for 1 min in each of three trials. ESL, CBZ, OXC and R-Lic were dissolved in dimethyl sulfoxide (DMSO) (2 ml/kg) and given intraperitoneally (see ROGAWSKI, M. A., […], S., JONES, S. M., RICE, K. C., […], A. & MONN, J. A. (1991). Anticonvulsant activity of the low-affinity uncompetitive N-methyl-D-aspartate antagonist (+−)-5-aminocarbonyl-10,11-dihydro-5H-dibenzo[a,d]cyclohepten-5,10-imine (ADCI): comparison with the structural analogs dizocilpine (MK-801) and carbamazepine. J Pharmacol Exp Ther, 259, 30-37).

Mice (NMRI) [3] = conditions: mouse, in vivo
[4] = system: voltage-gated sodium channel (VGSC); conditions: cited from earlier work
[5] = system: voltage-sensitive sodium channels; assay: [3H]BTX displacement binding to whole brain membranes; conditions: FIG. 3; for Degree of interaction with site 2 in voltage-gated sodium channels, relative to oxcarbazepine: [3H]-BTX displacement
Description: Blockade of voltage-sensitive sodium channels was studied by investigating [3H]batrachotoxinin A […] ([3H]BTX) displacement binding to whole brain membranes. Animals were decapitated and their brains quickly removed. Membrane preparation and binding assays were performed essentially as previously described (Shimidzu et al., 1997). Brains (without cerebellum) were homogenised in 10 vol 0.32 M sucrose, 1 mM EDTA, 1 mg/ml bovine serum albumin (BSA), 5 mM HEPES/TRIS pH 7.4 with a Teflon homogeniser (8 strokes at 400 r.p.m). After a 10 min centrifugation at 1,000 g the supernatants were centrifuged for 20 min at 39,000 g and pellets were homogenised with 20 vol or 40 vol Na+-free buffer, respectively for [3H]-batrachotoxinin A 20-alpha-benzoate ([3H]-BTX) binding assays. Na+-free buffer had the following composition (in mM): 130 choline chloride, 0.8 MgSO4, 5.4 KCl, 5.5 D-glucose, 50 HEPES/TRIS, pH 7.4. The homogenate was centrifuged for 20 min at 39,000 g and the resultant pellets were resuspended in Na+-free buffer. Protein concentration in membrane preparations was determined with BioRad Protein Assay (BioRad) using a standard curve of BSA (50-250 μg/ml). In [3H]-BTX binding assay experiments membrane preparations (200 μg protein) were incubated for 1 h at 37° C. with 10 nM (inhibition experiments) or 1-200 nM (saturation experiments) [3H]-BTX in Na+-free buffer containing 2 μM scorpion toxin, 1 μM tetrodotoxin and 1 mg/ml BSA in 96-well EIA/RIA plates (COSTAR). In inhibition experiments the reaction buffer contained also 3-1000 μM of test drugs. Nonspecific binding was determined in the presence of 300 μM veratridine. Nonspecific binding was 26±2% of total binding at 10 nM [3H-BTX]. After incubation the reaction was terminated by vacuum filtration (Brandel 96 harvester) through glassfiber filtermats (Wallac). […] Filtermats were dried, impregnated with MeltiLex A scintillation mixture (Wallac), inserted into plastic sample bags (Wallac) and radioactivity determined in a Microbeta 1224-510 counter (Wallac).

[6] = humans; subject-dependent; cited from earlier work
[7] = system: naive mice (male Charles River); assay: Rotarod test (motor impairment); format: in vivo; conditions: intraperitoneally, 15 min after administration, 15 r.p.m.
Description: as §1

| Compound | Formalin paw test licking time (s) at 100 mg/kg (Mice (NMRI) [1]) [s] | Effect on licking in the formalin test at 300 mg/kg (Mice (NMRI) [1]) | ED50 (Mice (NMRI) [1]) [mg/kg] | ED50 at 15 min [2] [mg/kg] | Sedation (%) at 300 mg/kg (Mice (NMRI) [3]; NMRI) [%] | Sedation observed (mice sedated / mice given) (Mice (NMRI) [3]; NMRI) | Affinity for the resting state of the channel relative to CBZ [4] | Degree of interaction with site 2 in voltage-gated sodium channels, relative to oxcarbazepine [5] | Proportion in which the enantiomer is formed as metabolite of oxcarbazepine [6] | Rotarod test ED50 values [7] [mg/kg] | Sedation (%) at 300 mg/kg (Mice (NMRI) [3]) [%] | Ability to displace [3H]-BTX from its binding site in whole brain membranes, compared with oxcarbazepine [5] |
| --- | --- | --- | --- | --- | --- | --- | --- | --- | --- | --- | --- | --- |
| NC(=O)N1c2ccccc2C=Cc2ccccc21 [CBZ, carbamazepine, reference compound] | 5.3 | abolished licking | 38.2 | 29.7 | 100 | 10/10 |  |  |  |  |  |  |
| CC(=O)O[C@H]1Cc2ccccc2N(C(N)=O)c2ccccc21 [ESL, S-(−)-10-acetoxy-10,11-dihydro-5H-dibenz/b,f/azepine-5-carboxamide] | 33.6 | abolished licking | 69.7 | 139 | 10 | 1/10 | about 3 fold lower |  |  |  |  |  |
| NC(=O)N1c2ccccc2CC(=O)c2ccccc21 [Oxc, oxcarbazepine, reference compound] | 1 |  |  | 50.2 | 90 |  |  |  |  |  |  |  |
| NC(=O)N1c2ccccc2C[C@H](O)c2ccccc21 [S-Lic, S-licarbazepine] |  |  |  |  |  |  |  | approximately 2.5 times less | approximately 80% |  |  |  |
| NC(=O)N1c2ccccc2C[C@@H](O)c2ccccc21 [R-Lic, R-licarbazepine] | 36.7 |  |  |  |  |  |  | approximately 2.5 times less | ~20% | 97.4 | 20 | reduced ability to displaced |
